Test systems include SK-OV-3 ovarian; UACC-62 melanoma; K-562 leukemia; SR leukemia; PC-3 prostate; 786-0 renal; ACHN renal; NCI-H23 lung; RXF 393 renal; SN12C renal.
Holding throughout (assay): NCI-60 cell line screen, 48 h

This note sets out measurements from PubChem BioAssay (NCI).

Where “and” joins values, the source holds several entries; their conditions need not be identical. Equal entries are not always repeated.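 Test compounds were applied to cells in 96-well plates for 48 hours at 5 doses. GI50 marks 50% less growth. TGI: total growth inhibition.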 Bounds are passed on as bounds.

Turning to `C=C(C)C(CC=C(C)C)CC12CC(CC=C(C)C)C(C)(C)C(CC=C(C)C)(C(=O)C(Cc3ccc(O)c(O)c3)=C1O)C2=O` (centres undefined), the TGI in the test with SK-OV-3 ovarian, in the test with UACC-62 melanoma, in the test with K-562 leukemia, in the test with SR leukemia, in the test on PC-3 prostate and with 786-0 renal was > 100 µM throughout. Moreover, the TGI in the test with ACHN renal, with NCI-H23 lung and in the test with RXF 393 renal was > 100 µM in each case.

`O=C1NC(=Nc2ccccc2)S/C1=C\c1ccc2ncccc2c1`: the GI50 with SK-OV-3 ovarian was > 25 µM; with UACC-62 melanoma, 13.4 µM; in the test with SN12C renal, > 25 µM; with K-562 leukemia, 0.846 µM; in the test with SR leukemia, 0.64 µM; in the test with PC-3 prostate, 1.67 µM. The GI50 in the test on 786-0 renal was > 25 µM; in the test on ACHN renal, > 25 µM; with NCI-H23 lung, 5.89 µM; in the test on RXF 393 renal, > 25 µM. For the same molecule, the TGI with SK-OV-3 ovarian, in the test with UACC-62 melanoma, in the test with SN12C renal, with K-562 leukemia, in the test with SR leukemia and in the test on PC-3 prostate was > 25 µM in each case. Besides, the TGI in the test with 786-0 renal, in the test with ACHN renal, with NCI-H23 lung and in the test with RXF 393 renal was > 25 µM in each case.

As for `Cn1c(=O)c2c(nc(Nc3cc(=O)[nH]c(=O)[nH]3)n2Cc2ccccc2)n(C)c1=O`, the GI50 in the test on SK-OV-3 ovarian is > 100 µM; with UACC-62 melanoma, 65.8 µM; in the test on SN12C renal, > 100 µM; with K-562 leukemia it was 82.5 µM; in the test with SR leukemia, > 100 µM; with PC-3 prostate, > 100 µM. The GI50 in the test with 786-0 renal, in the test on ACHN renal, in the test on NCI-H23 lung and in the test on RXF 393 renal was > 100 µM each time. Further, the TGI with SK-OV-3 ovarian, in the test on UACC-62 melanoma, in the test with SN12C renal, with K-562 leukemia, in the test with SR leukemia and with PC-3 prostate was > 100 µM each time. Besides, the TGI with 786-0 renal, in the test on ACHN renal, in the test with NCI-H23 lung and in the test on RXF 393 renal was > 100 µM in each case.

For `Cn1cc(C2=C(c3ccc4ccccc4c3)C(=O)NC2=O)c2ccccc21`, the GI50 in the test on SK-OV-3 ovarian was > 25 µM; in the test on UACC-62 melanoma, 21.3 µM; with SN12C renal it was > 25 µM; with K-562 leukemia, 2.09 µM; in the test with SR leukemia it was 3.11 µM; in the test with PC-3 prostate, > 25 µM. Moreover, the GI50 in the test on 786-0 renal, in the test on ACHN renal, in the test on NCI-H23 lung and in the test with RXF 393 renal was > 25 µM throughout. The TGI with SK-OV-3 ovarian, in the test on UACC-62 melanoma, in the test with SN12C renal, in the test on K-562 leukemia, with SR leukemia and with PC-3 prostate was > 25 µM throughout. Moreover, the TGI in the test with 786-0 renal, in the test with ACHN renal, in the test with NCI-H23 lung and with RXF 393 renal was > 25 µM in each case.

Regarding `CC(SC(C)C(=O)N/N=C/c1cccc(Cl)c1)C(=O)N/N=C\c1cccc(Cl)c1` (centres undefined), the GI50 in the test with SK-OV-3 ovarian is 13 µM; in the test with UACC-62 melanoma, 20.3 µM; with SN12C renal, 12.1 µM; in the test with K-562 leukemia, 31.6 µM; with SR leukemia, 3.53 µM; with PC-3 prostate, 4.36 µM. Further, the GI50 in the test on 786-0 renal is 14.5 µM; in the test on ACHN renal, 5.53 µM; in the test with NCI-H23 lung it was 14 µM; in the test with RXF 393 renal, 22.6 µM. Moreover, the TGI with SK-OV-3 ovarian is 31.2 µM; with UACC-62 melanoma, 46.2 µM; with SN12C renal, 53.9 µM; in the test with K-562 leukemia, > 100 µM; in the test with SR leukemia, 11.1 µM; in the test with PC-3 prostate it was 25.8 µM. Moreover, the TGI with 786-0 renal is 35.5 µM; in the test with ACHN renal, > 100 µM; in the test on NCI-H23 lung, 32.6 µM; in the test on RXF 393 renal, 90.1 µM.

On to `CCn1c(-c2cc(OC)cc(OC)c2)nc2c1C(=O)c1ccccc1C2=O`, for which the TGI in the test with SK-OV-3 ovarian, with UACC-62 melanoma, in the test with SN12C renal, in the test on K-562 leukemia, in the test with SR leukemia and in the test with PC-3 prostate was > 100 µM in each case. Besides, the TGI in the test with 786-0 renal was > 100 µM; in the test on ACHN renal it was > 100 µM; with NCI-H23 lung, > 100 µM; in the test with RXF 393 renal, 69.2 µM.

Take `O=c1n(CC2CO2)c(=O)n(CC2CO2)c(=O)n1CC1CO1` (centres undefined): the GI50 is 6.86 µM in the test on SK-OV-3 ovarian; 5.58 µM in the test on UACC-62 melanoma; 17.7 µM and 3.55 µM with SN12C renal; 40.3 µM and 26.5 µM with K-562 leukemia; 13.2 µM and 1.5 µM with SR leukemia; 20.3 µM in the test with PC-3 prostate. Moreover, the GI50 with 786-0 renal was 8.38 µM and 4.15 µM; with ACHN renal, 3.68 µM and 0.504 µM; in the test on NCI-H23 lung, 14.2 µM and 7.3 µM; in the test on RXF 393 renal, 4.01 µM. The TGI with SK-OV-3 ovarian was 123 µM and > 100 µM; with UACC-62 melanoma it was 41.9 µM and 75.5 µM; with SN12C renal it was 52 µM and 88.1 µM and > 100 µM; in the test with K-562 leukemia, 308 µM and > 100 µM; in the test on SR leukemia, 877 µM and > 100 µM; with PC-3 prostate, 75.4 µM and 92.2 µM and > 100 µM. Besides, the TGI in the test with 786-0 renal is 24.2 µM and 84.8 µM and > 100 µM; in the test on ACHN renal, 140 µM and > 100 µM; in the test with NCI-H23 lung, 90.9 µM and > 100 µM; with RXF 393 renal, 109 µM and 23.8 µM.

Turning to `CC(C)(C)C(=O)OCOP(=O)(OCOC(=O)C(C)(C)C)C1CCCN(O)C1=O` (centres undefined), the GI50 is 0.508 µM in the test with SK-OV-3 ovarian; 0.318 µM in the test with UACC-62 melanoma; 0.334 µM in the test with SN12C renal; 0.393 µM with K-562 leukemia; 0.433 µM in the test on SR leukemia; 2.02 µM with PC-3 prostate. Further, the GI50 is 0.35 µM in the test on 786-0 renal, 0.34 µM with ACHN renal, 0.564 µM in the test on NCI-H23 lung and 0.36 µM in the test on RXF 393 renal. Besides, the TGI with SK-OV-3 ovarian was 8.81 µM; with UACC-62 melanoma, 2.1 µM; with SN12C renal, 14.1 µM; in the test with K-562 leukemia it was > 100 µM; with SR leukemia, 7.87 µM; in the test on PC-3 prostate it was > 100 µM. Moreover, the TGI in the test on 786-0 renal worked out at 18.1 µM; in the test with ACHN renal, 7.97 µM; with NCI-H23 lung it was 3.4 µM; with RXF 393 renal, 1.74 µM.
